Laboratory results taken from ChEMBL document CHEMBL1201862, “PubChem BioAssay data set” (2004).
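Values below derive from 48-hour exposures of cells grown in 96-well plates, with endpoints linearly interpolated between the two concentrations bracketing the appropriate inhibition level. GI50 marks 50% less growth.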 Calls of active or inactive are those of the source. No stated cut-off is given here; in the data, active = GI50 up to about 1.1 µM and inactive = higher.

What was measured:
Assay in all cases: NCI-60 cell line screen, 48 h
DLD-1 = tested on: DLD-1
DMS-114 = tested on: DMS-114
DMS-273 = tested on: DMS-273
HOP-18 = tested on: HOP-18
KM-20L2 = tested on: KM-20L2
LXFL 529 = tested on: LXFL 529
RXF 631 = tested on: RXF 631
SNB-78 = tested on: SNB-78
XF498 = tested on: XF498

SMILES	GI50 (DLD-1)	GI50 (DMS-114)	GI50 (DMS-273)	GI50 (HOP-18)	GI50 (KM-20L2)	GI50 (LXFL 529)	GI50 (RXF 631)	GI50 (SNB-78)	GI50 (XF498)
C/C(=N\N=C(/[SeH])N1CC2CCC(CC2)C1)c1ccccn1	< 0.01 µM (active)	< 0.01 µM (active)	0.0136 µM (active)	0.294 µM (active)	< 0.01 µM (active)	< 0.01 µM (active)	0.4 µM (active)	0.216 µM (active)	< 0.01 µM (active)
CCOC(=O)CCC(NC(=O)c1ccc(/N=C/c2nc3cc(C(F)(F)F)ccc3nc2-c2ccccc2)cc1)C(=O)OCC (configuration not stated)	> 50 µM (inactive)	34.3 µM (inactive)	> 100 µM (inactive)	> 100 µM (inactive)	> 50 µM (inactive)	43.1 µM (inactive)	–	10 µM (inactive)	2.81 µM (inactive)
COC(=O)C1C(=O)N(CCc2c[nH]c3ccccc23)C[C@@H]2CCC(=O)C[C@H]12 (some centres not stated)	> 100 µM (inactive)	> 100 µM (inactive)	> 100 µM (inactive)	–	–	> 100 µM (inactive)	> 100 µM (inactive)	> 100 µM (inactive)	> 100 µM (inactive)
CC1(C)CC(=O)C(=[N+]=[N-])C(=O)C1	> 100 µM (inactive)	> 100 µM (inactive)	–	–	> 100 µM (inactive)	> 100 µM (inactive)	–	–	> 100 µM (inactive)
O=C1CC(c2ccc(Cl)cc2)=Nc2ccccc2N1	> 100 µM (inactive)	81.5 µM (inactive)	79.1 µM (inactive)	40.9 µM (inactive)	> 100 µM (inactive)	> 100 µM (inactive)	74.6 µM (inactive)	86.7 µM (inactive)	–
O=C(Nc1ccc(Cl)c(Cl)c1)C1C(=O)N(c2ccc(Cl)c(Cl)c2)C(=O)/C1=N\O (configuration not stated)	> 100 µM (inactive)	30.3 µM (inactive)	> 100 µM (inactive)	> 100 µM (inactive)	43.5 µM (inactive)	> 100 µM (inactive)	–	> 100 µM (inactive)	–
Cc1cc(O)nc(NN2C(Cl)C(=O)C2c2ccccc2O)n1 (configuration not stated)	–	1.32 µM (inactive)	1.96 µM (inactive)	1.6 µM (inactive)	10.7 µM (inactive)	2.62 µM (inactive)	–	24.3 µM (inactive)	–
CCOC(=O)C(C)(C)Oc1ccc2c(=O)cc(-c3ccccc3)oc2c1	–	17.9 µM (inactive)	–	22.8 µM (inactive)	24.2 µM (inactive)	19 µM (inactive)	–	26.7 µM (inactive)	–
COc1ccc(/C=c2/sc3n(c2=O)NC2(CCCCC2)NN=3)cc1	> 100 µM (inactive)	–	> 100 µM (inactive)	–	> 100 µM (inactive)	> 100 µM (inactive)	–	> 100 µM (inactive)	> 100 µM (inactive)
CC(=O)OC1COC(N2C(=O)C(=O)c3cc(Br)ccc32)C(OC(C)=O)C1OC(C)=O (configuration not stated)	> 100 µM (inactive)	> 100 µM (inactive)	> 100 µM (inactive)	> 100 µM (inactive)	> 100 µM (inactive)	> 100 µM (inactive)	> 100 µM (inactive)	> 100 µM (inactive)	> 100 µM (inactive)
C=CCO/N=C(\OC(=O)c1ccc([N+](=O)[O-])cc1)c1ccccc1	> 100 µM (inactive)	> 100 µM (inactive)	> 100 µM (inactive)	> 100 µM (inactive)	–	> 100 µM (inactive)	> 100 µM (inactive)	> 100 µM (inactive)	–
NC(=O)c1ccc(Cl)c([N+](=O)[O-])c1	> 100 µM (inactive)	> 100 µM (inactive)	> 100 µM (inactive)	> 100 µM (inactive)	> 100 µM (inactive)	> 100 µM (inactive)	–	> 100 µM (inactive)	> 100 µM (inactive)
N#Cc1ccc(OCCSCCCCCCCCCCSCCOc2ccc(C#N)cc2)cc1	–	1.29 µM (inactive)	–	> 100 µM (inactive)	> 100 µM (inactive)	> 100 µM (inactive)	–	> 100 µM (inactive)	–
COC(=O)C1=CC2OC1(C)C1(CC1)C2=O (configuration not stated)	14.3 µM (inactive)	–	> 10 µM (inactive)	–	17.5 µM (inactive)	18.5 µM (inactive)	–	–	14.7 µM (inactive)
N#CC(C(=O)CCC(=O)C(C#N)c1ccccc1)c1ccccc1 (configuration not stated)	> 100 µM (inactive)	> 100 µM (inactive)	> 100 µM (inactive)	> 100 µM (inactive)	–	> 100 µM (inactive)	–	> 100 µM (inactive)	> 100 µM (inactive)
COC1(OC)CCCCC2c3cccc(OC(C)=O)c3C21OC(C)=O (configuration not stated)	> 100 µM (inactive)	> 100 µM (inactive)	> 100 µM (inactive)	> 100 µM (inactive)	–	> 100 µM (inactive)	–	> 100 µM (inactive)	29.2 µM (inactive)
Cc1cccc(C)c1NC(=O)CCC(=O)NNc1nnc(C)n1N	> 100 µM (inactive)	> 100 µM (inactive)	> 100 µM (inactive)	> 100 µM (inactive)	> 100 µM (inactive)	> 100 µM (inactive)	> 100 µM (inactive)	> 100 µM (inactive)	> 100 µM (inactive)
O=C(CCC(=O)C1Cc2ccccc2C1=O)Nc1cccc(C(F)(F)F)c1 (configuration not stated)	> 100 µM (inactive)	–	> 100 µM (inactive)	> 100 µM (inactive)	> 100 µM (inactive)	> 100 µM (inactive)	> 100 µM (inactive)	> 100 µM (inactive)	–
CCOc1ccccc1NC(=O)C(=O)CC(=O)c1c(C)[n+]([O-])c2ccccc2[n+]1[O-]	–	> 100 µM (inactive)	> 100 µM (inactive)	46.5 µM (inactive)	75.7 µM (inactive)	> 100 µM (inactive)	–	> 100 µM (inactive)	–
CN(C)C[C@H]1CC[C@@H](CN(C)C)C1=O	3.94 µM (inactive)	8.47 µM (inactive)	8.71 µM (inactive)	8.02 µM (inactive)	11.2 µM (inactive)	6.18 µM (inactive)	–	10.3 µM (inactive)	8.28 µM (inactive)
COC(=O)C(Cc1nc2ccccc2nc1O)C(NO)C(=O)Nc1c(Cl)cc([N+](=O)[O-])cc1Cl (configuration not stated)	28.9 µM (inactive)	21.2 µM (inactive)	–	–	–	–	–	40.8 µM (inactive)	–
CC(=O)NC1=C(NCCC(C)C)C(=O)c2ccccc2C1=O	> 50 µM (inactive)	–	> 50 µM (inactive)	–	> 50 µM (inactive)	> 50 µM (inactive)	–	> 50 µM (inactive)	> 50 µM (inactive)
NC(=O)c1c2c(cc3c(=O)c4ccccc4[nH]c13)CCCC2	> 73.1 µM (inactive)	> 100 µM (inactive)	> 100 µM (inactive)	> 100 µM (inactive)	> 100 µM (inactive)	> 100 µM (inactive)	> 100 µM (inactive)	–	> 100 µM (inactive)
CCOC(=O)C1N(S(=O)(=O)c2ccc(C)cc2)CCC12c1ccccc1N(C(C)=O)C2C(/C=C/C(=O)OC)=C/C(=O)OC (configuration not stated)	> 100 µM (inactive)	> 100 µM (inactive)	89.9 µM (inactive)	–	> 100 µM (inactive)	> 100 µM (inactive)	–	> 100 µM (inactive)	> 100 µM (inactive)
CC12CCC[C@@](C)(C(=O)OC3OC(CO)C(O)C(O)C3O)[C@H]1CCC13CC4CC(OC4(CO)[C@H]1O)[C@@H]23 (some centres not stated)	> 100 µM (inactive)	24.9 µM (inactive)	> 100 µM (inactive)	> 100 µM (inactive)	> 100 µM (inactive)	> 100 µM (inactive)	> 100 µM (inactive)	> 100 µM (inactive)	> 100 µM (inactive)
